Data reported in patent US20210101899A1, “INHIBITORS OF MUTANT ISOCITRATE DEHYDROGENASES AND COMPOSITIONS AND METHODS THEREOF” (IsoCure Biosciences Inc., priority 2016, published 2021).

What was measured:
Type in all cases: biochemical
IDH1 (R132C) = IDH1 (R132C) (Homo sapiens, UniProt O75874, R132C); experiment: IDH enzyme assay, NADPH depletion by diaphorase/resazurin coupled detection; conditions: pre-incubated with enzyme for 1 h at room temperature; 500 μM a-Ketoglutarate+15 μM NADPH; 10-dose, 3-fold dilution from 10 μM; read-out: Compound IC50 (nM) IDH1 (R132C)
Method: (§1) Compounds were tested against 3 enzymes, as provided below. Compounds were tested in 10-dose IC50 mode with 3-fold serial dilution at a starting concentration of 10 μM. Control Compounds were tested in 10-dose IC50 mode with 3-fold serial dilution starting at 1 mM or 10 mM. Assay Format: The production or depletion of NADPH by IDH enzymes was measured by diaphorase/resazurin coupled detection. Fluorescence measurement: Ex/Em=535/590 by EnVision. Compounds were pre-incubated with enzyme for 1 h at room temperature. Standard substrate: 1500 μM a-Ketoglutarate+15 μM NADPH for IDH1 (R132H). 500 μM a-Ketoglutarate+15 μM NADPH for IDH1 (R132C). 65 μM Isocitrate+50 μM NADP for IDH1.

IDH1 (R132H) = IDH1 (R132H) (Homo sapiens, UniProt O75874, R132H); experiment: as above; conditions: pre-incubated with enzyme for 1 h at room temperature; 1500 μM a-Ketoglutarate+15 μM NADPH; 10-dose, 3-fold dilution from 10 μM; read-out: Compound IC50 (nM) IDH1 (R132H)
Method: as §1

IDH1 = IDH1 (Homo sapiens, UniProt O75874); experiment: IDH enzyme assay, NADPH production by diaphorase/resazurin coupled detection; conditions: IDH1 WT; pre-incubated with enzyme for 1 h at room temperature; 65 μM Isocitrate+50 μM NADP; 10-dose, 3-fold dilution from 10 μM; read-out: Compound IC50 (nM) IDH1
Method: as §1

IDH1 (R132H), sequence (O75874 whole entry R132H): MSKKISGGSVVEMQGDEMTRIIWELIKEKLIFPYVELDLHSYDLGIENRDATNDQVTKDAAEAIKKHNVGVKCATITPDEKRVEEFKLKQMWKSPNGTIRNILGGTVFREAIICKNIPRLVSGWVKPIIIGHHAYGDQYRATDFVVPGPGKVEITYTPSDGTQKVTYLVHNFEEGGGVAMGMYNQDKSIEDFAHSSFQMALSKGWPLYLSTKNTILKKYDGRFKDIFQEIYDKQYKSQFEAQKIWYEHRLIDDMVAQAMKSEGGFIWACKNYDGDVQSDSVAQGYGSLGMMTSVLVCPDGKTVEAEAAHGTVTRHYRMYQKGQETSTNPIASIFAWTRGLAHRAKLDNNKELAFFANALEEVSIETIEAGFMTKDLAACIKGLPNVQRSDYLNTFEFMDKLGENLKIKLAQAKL
IDH1, sequence (O75874 whole entry): as the sequence (O75874 whole entry R132H) above, with H132R counted along it
IDH1 (R132C), sequence (O75874 whole entry R132C): as the sequence (O75874 whole entry R132H) above, with H132C counted along it

| IC50 (IDH1 (R132C)) [nM] | IC50 (IDH1 (R132H)) [nM] | IC50 (IDH1) [nM] | SMILES |
| --- | --- | --- | --- |
| 35 | 5 | 4780 | C=CC(=O)Nc1ccc(NC(=O)c2nn(Cc3ccc(F)cc3)c3c2CN(C(=O)c2ccc[nH]2)CC3C)s1 (stereo not drawn) [ISO-2-19, N-(5-acrylamidothiophen-2-yl)-1-(4-fluorobenzyl)-7-methyl-5-(1H-pyrrole-2-carbonyl)-4,5,6,7-tetrahydro-1H-pyrazolo[4,3-c]pyridine-3-carboxamide] |
| 77 | 34 | ≥ 10000 | C=CC(=O)Nc1cc(Cn2nc(C(=O)Nc3cccc([C@H](C)O)c3)c3c2C(C)CN(C(=O)c2ccc[nH]2)C3)ccc1F (stereo partly drawn) [ISO-2-3, 1-(3-acrylamido-4-fluorobenzyl)-N-(3-((S)-1-hydroxyethyl)phenyl)-7-methyl-5-(1H-pyrrole-2-carbonyl)-4,5,6,7-tetrahydro-1H-pyrazolo[4,3-c]pyridine-3-carboxamide] |
